Data from patent US8530493B2, “Indolopyridines as Eg5 kinesin modulators” (4SC AG, priority 2006, dated 2013).

System: RKO p21 uninduced (proliferating) colon adenocarcinoma cells
Assay: Alamar Blue cell viability assay, RKO p21 uninduced (proliferating)
Assay type: cell-based
Conditions: Homo sapiens, Table B3, anti-proliferative/cytotoxic activity, 72 hours, read-out: −log EC50 RKO p21 uninduced (proliferating) (converted)
Experimental: The anti-proliferative/cytotoxic activity of the compounds described herein can be tested on subclones of RKO human colon adenocarcinoma cells (Schmidt et al., Oncogene 19, 2423-2429; 2000) using the Alamar Blue cell viability assay (described in O'Brien et al. Eur J Biochem 267, 5421-5426, 2000). The compounds are dissolved as 10 mM solutions in DMSO and subsequently diluted in semi-logarithmic steps. DMSO dilutions are further diluted 1:100 into Dulbecco's modified Eagle's medium (DMEM) containing 10% fetal calf serum to a final concentration twice as much as the final concentration in the test. RKO subclones are seeded into 96 well flat bottom plates at a density of 4000 cells per well in a volume of 50 μl per well. 24 hours after seeding the 50 μl each of the compound dilutions in DMEM medium are added into each well of the 96 well plate. Each compound dilution is tested as triplicates. Wells containing untreated control cells are filled with 50 μl DMEM medium containing 1% DMSO. The cells are then incubated with the substances for 72 hours at 37° C. in a humidified atmosphere containing 5% carbon dioxide. To determine the viability of the cells, 10 μl of an Alamar Blue solution (Biosource) are added and the fluorescence is measured at an extinction of 544 nm and an emission of 590 nm. For the calculation of the cell viability the emission value from untreated cells is set as 100% viability and the emission rates of treated cells are set in relation to the values of untreated cells. Viabilities are expressed as % values. The Graphpad Prism program is used for the calculation of EC50 values for anti-proliferative/cytotoxic activity out of the obtained dose-response curves.
To determine the cell cycle specific mode of action, subclones of RKO colon adenocarcinoma cells (RKOp21 or RKOp27 as described by Schmidt et al. in Oncogene 19, 2423-2429; 2000) are seeded into 96 well flat bottom plates at a density of 16000 cells per well in a volume of 50 μl per well in DMEM growth medium with 10% FCS containing 10 μM Ponasterone A. 24 hours after seeding the 50 μl each of the compound dilutions in DMEM medium are added into each well of the 96-well plate. Each compound dilution is tested as triplicates. Wells containing untreated control cells are filled with 50 μl DMEM medium containing 1% DMSO. The cells are then incubated with the substances for 72 hours at 37° C. in a humidified atmosphere containing 5% carbon dioxide. To determine the viability of the cells, 10 μl of an Alamar Blue solution (Biosource) are added and the fluorescence is measured at an extinction of 544 nm and an emission of 590 nm. For the calculation of the cell viability the emission value from untreated cells is set as 100% viability and the emission rates of treated cells are set in relation to the values of untreated cells. Viabilities are expressed as % values. The Graphpad Prism program (GraphPad Software, Inc) is used for the calculation of EC50 values out of the obtained dose-response curves. Viability is compared of proliferating cells grown in the absence of the inducer Ponasterone A, versus viability of cells arrested by the expression of ectopic p27Kip1 induced by Ponasterone A.
Representative values for anti-proliferation/cytotoxicity [measured as −log EC50 (mol/l)] determined in the aforementioned assays follow from the following tables B1, B2 and B3, in which the numbers of the compounds correspond to the numbers of the examples.

| SMILES | EC50 [nM] |
| --- | --- |
| CCOc1ccc2[nH]c3c(c2c1)C[C@@]1(C)C(=O)N(CCN2CC=CCC2)C(=O)N1[C@@H]3c1cccc(O)c1 (racemic) [Example 165, (3aSR,10RS)-2-[2-(3,6-Dihydro-2H-pyridin-1-yl)-ethyl]-6-ethoxy-10-(3-hydroxy-phenyl)-3a-methyl-3a,4,9,10-tetrahydro-2,9,10a-triaza-cyclopenta[b]fluorene-1,3-dione] | 39.8 to 251 |
| CCN(CCCN1C(=O)N2[C@H](c3cccc(O)c3)c3[nH]c4cc(F)c(Cl)cc4c3C[C@@]2(C)C1=O)CCOC (racemic) [Example 471, (3aSR,10RS)-6-Chloro-2-{3-[ethyl-(2-methoxy-ethyl)-amino]-propyl}-7-fluoro-10-(3-hydroxy-phenyl)-3a-methyl-3a,4,9,10-tetrahydro-2,9,10a-triaza-cyclopenta[b]fluorene-1,3-dione] | 39.8 to 251 |
| COc1cc2c3c([nH]c2cc1F)[C@@H](c1cccc(O)c1)N1C(=O)N(CCCN2CCOCC2)C(=O)[C@]1(C)C3 (racemic) [Example 321, (3aSR,10RS)-7-Fluoro-10-(3-hydroxy-phenyl)-6-methoxy-3a-methyl-2-(3-morpholin-4-yl-propyl)-3a,4,9,10-tetrahydro-2,9,10a-triaza-cyclopenta[b]fluorene-1,3-dione] | 39.8 to 251 |
| COc1cc2c3c([nH]c2cc1F)[C@@H](c1cccc(O)c1)N1C(=O)N(CCCN(C)CCO)C(=O)[C@]1(C)C3 (racemic) [Example 312, (3aSR,10RS)-7-Fluoro-2-{3-[(2-hydroxy-ethyl)-methyl-amino]-propyl}-10-(3-hydroyx-phenyl)-6-methoxy-3a-methyl-3a,4,9,10-tetrahydro-2,9,10a-triaza-cyclopenta[b]fluorene-1,3-dione] | 39.8 to 251 |
| CCOc1ccc2[nH]c3c(c2c1)C[C@@]1(C)C(=O)N(CCCN2CCCCC2)C(=O)N1[C@@H]3c1cccc(O)c1 (racemic) [Example 223, (3aSR,10RS)-6-Ethoxy-10-(3-hydroxy-phenyl)-3a-methyl-2-(3-piperidin-1-yl-propyl)-3a,4,9,10-tetrahydro-2,9,10a-triaza-cyclopenta[b]fluorene-1,3-dione] | 39.8 to 251 |
| CC(C)(C)NCCN1C(=O)N2[C@H](c3cccc(O)c3)c3[nH]c4ccc(Br)cc4c3C[C@@]2(C)C1=O (racemic) [Example 378, (3aSR,10RS)-6-Bromo-2-(2-tert-butylamino-ethyl)-10-(3-hydroxy-phenyl)-3a-methyl-3a,4,9,10-tetrahydro-2,9,10a-triaza-cyclopenta[b]fluorene-1,3-dione] | ≤ 39.8 |
| C[C@@]12Cc3c([nH]c4ccc(Br)cc34)[C@@H](c3cccc(O)c3)N1C(=O)N(CCNCC1CC1)C2=O (racemic) [Example 376, (3aSR,10RS)-6-Bromo-2-[2-(cyclopropylmethyl-amino)-ethyl]-10-(3-hydroxy-phenyl)-3a-methyl-3a,4,9,10-tetrahydro-2,9,10a-triaza-cyclopenta[b]fluorene-1,3-dione] | ≤ 39.8 |
| C[C@@]12Cc3c([nH]c4ccc(Br)cc34)[C@@H](c3cccc(O)c3)N1C(=O)N(CCCNC1CC1)C2=O (racemic) [Example 215, (3aSR,10RS)-6-Bromo-2-(3-cyclopropylamino-propyl)-10-(3-hydroxy-phenyl)-3a-methyl-3a,4,9,10-tetrahydro-2,9,10a-triaza-cyclopenta[b]fluorene-1,3-dione] | ≤ 39.8 |
| C[C@@]12Cc3c([nH]c4cc(F)c(Cl)cc34)[C@@H](c3cccc(O)c3)N1C(=O)N(CCN1CCCC1)C2=O (racemic) [Example 354, (3aSR,10RS)-6-Chloro-7-fluoro-10-(3-hydroxy-phenyl)-3a-methyl-2-(2-pyrrolidin-1-yl-ethyl)-3a,4,9,10-tetrahydro-2,9,10a-triaza-cyclopenta[b]fluorene-1,3-dione] | ≤ 39.8 |
| CCN(CC)CCN1C(=O)N2[C@H](c3cccc(O)c3)c3[nH]c4ccc(Br)cc4c3C[C@@]2(C)C1=O (racemic) [Example 385, (3aSR,10RS)-6-Bromo-2-(2-diethylamino-ethyl)-10-(3-hydroxy-phenyl)-3a-methyl-3a,4,9,10-tetrahydro-2,9,10a-triaza-cyclopenta[b]fluorene-1,3-dione] | ≤ 39.8 |
| C[C@@]12Cc3c([nH]c4cc(F)c(Cl)cc34)[C@@H](c3cccc(O)c3)N1C(=O)N(CCCNCC1CC1)C2=O (racemic) [Example 460, (3aSR,10RS)-6-Chloro-2-[3-(cyclopropylmethyl-amino)-propyl]-7-fluoro-10-(3-hydroxy-phenyl)-3a-methyl-3a,4,9,10-tetrahydro-2,9,10a-triaza-cyclopenta[b]fluorene-1,3-dione] | 39.8 to 251 |
| CCN(CCO)CCCN1C(=O)N2[C@H](c3cccc(O)c3)c3[nH]c4ccc(OC)cc4c3C[C@@]2(C)C1=O [Example 543, (3aS,10R)-2-{3-[Ethyl-(2-hydroxy-ethyl)-amino]-propyl}-10-(3-hydroxy-phenyl)-6-methoxy-3a-methyl-3a,4,9,10-tetrahydro-2,9,10a-triaza-cyclopenta[b]fluorene-1,3-dione] | ≤ 39.8 |
| CCOc1ccc2[nH]c3c(c2c1)C[C@@]1(C)C(=O)N(CCCN(C)C(C)C)C(=O)N1[C@@H]3c1cccc(O)c1 (racemic) [Example 197, (3aSR,10RS)-6-Ethoxy-10-(3-hydroxy-phenyl)-2-[3-(isopropyl-methyl-amino)-propyl]-3a-methyl-3a,4,9,10-tetrahydro-2,9,10a-triaza-cyclpenta[b]fluorene-1,3-dione] | 39.8 to 251 |
| CC(=O)N1CCN(CCN2C(=O)N3[C@H](c4cccc(O)c4)c4[nH]c5cc(F)c(Cl)cc5c4C[C@@]3(C)C2=O)CC1 (racemic) [Example 360, (3aSR,10RS)-2-[2-(4-Acetyl-piperazin-1-yl)-ethyl]-6-chloro-7-fluoro-10-(3-hydroxy-phenyl)-3a-methyl-3a,4,9,10-tetrahydro-2,9,10a-triaza-cyclopenta[b]fluorene-1,3-dione] | 39.8 to 251 |
| C[C@@]12Cc3c([nH]c4ccc(OC(F)F)cc34)[C@@H](c3cccc(O)c3)N1C(=O)N(CCNC1CCC1)C2=O (racemic) [Example 272, (3aSR,10RS)-2-(2-Cyclobutylamino-ethyl)-6-(1,1-difluoro-methoxy)-10-(3-hydroxy-phenyl)-3a-methyl-3a,4,9,10-tetrahydro-2,9,10a-triaza-cyclopenta[b]fluorene-1,3-dione] | ≤ 39.8 |
| CN(C)CCCN1C(=O)N2[C@H](c3cccc(O)c3)c3[nH]c4ccc(OC(F)F)cc4c3C[C@@]2(C)C1=O (racemic) [Example 314, (3aSR,10RS)-6-(1,1-Difluoro-methoxy)-2-(3-dimethylamino-propyl)-10-(3-hydroxy-phenyl)-3a-methyl-3a,4,9,10-tetrahydro-2,9,10a-triaza-cyclopenta[b]fluorene-1,3-dione] | ≤ 39.8 |
| C=CCN(C)CCN1C(=O)N2[C@H](c3cccc(O)c3)c3[nH]c4ccc(Br)cc4c3C[C@@]2(C)C1=O (racemic) [Example 381, (3aSR,10RS)-2-[2-(Allyl-methyl-amino)-ethyl]-6-bromo-10-(3-hydroxy-phenyl)-3a-methyl-3a,4,9,10-tetrahydro-2,9,10a-triaza-cyclopenta[b]fluorene-1,3-dione] | 39.8 to 251 |
| CNCCCN1C(=O)N2[C@H](c3cccc(O)c3)c3[nH]c4cc(F)c(OC)cc4c3C[C@@]2(C)C1=O (racemic) [Example 303, (3aSR,10RS)-7-Fluoro-10-(3-hydroxy-phenyl)-6-methoxy-3a-methyl-2-(3-methylamino-propyl)-3a,4,9,10-tetrahydro-2,9,10a-triaza-cyclopenta[b]fluorene-1,3-dione] | 39.8 to 251 |
| COc1ccc2[nH]c3c(c2c1)C[C@@]1(C)C(=O)N(CCCN2CCN(C(C)=O)CC2)C(=O)N1[C@@H]3c1cccc(O)c1 (racemic) [Example 151, (3aSR,10RS)-2-[3-(4-Acetyl-piperazin-1-yl)-propyl]-10-(3-hydroxy-phenyl)-6-methoxy-3a-methyl-3a,4,9,10-tetrahydro-2,9,10a-triaza-cyclopenta[b]fluorene-1,3-dione] | 39.8 to 251 |
